US5405598A, “Sensitizing agents for use in boron neutron capture therapy” (priority 1992, dated 1995)

Assays:
HIV-1 (strain LAV) = assay: Anti-HIV-1 activity in human PBM cells; type: cell-based; settings: On day 6, in human PBM cells, without neutrons
Description: Thus, these compounds have antiviral activity in the absence of neutrons.
(§1) Biological methods are described in Schinazi et al, Antimicrob. Agents Chemother., vol. 34, pp. 1061-1067, (1990).

CEM = assay: Cytotoxicity in CEM cells; type: cell-based; settings: On day 6; read-out: CEM IC50 (cytotoxicity)
Description: as §1

Vero = assay: Cytotoxicity in Vero cells; type: cell-based; settings: On day 3; read-out: Vero IC50 (cytotoxicity)
Description: as §1

PBM = assay: Cytotoxicity in PBM cells; type: cell-based, human; settings: On day 6; read-out: PBM IC50 (cytotoxicity)
Description: as §1

[1] = system: human immunodeficiency viruses (HIV); settings: racemic BCH-189; FTC; cited from earlier work
Hepatitis B virus (HBV) = settings: racemic BCH-189; FTC; cited from earlier work
malignant cells = settings: under both euoxic and hypoxic conditions; cited from earlier work
[2] = mice, radiolabeled; cited from earlier work
[3] = mice; cited from earlier work
hamster V-79 cells = settings: when irradiated with low energy neutrons; cited from earlier work

**Q.** Which EC50 (HIV-1 (strain LAV)) does the source give for “5'-O-Butyryl-5-carboranyl-3'-thia-2',3'-dideoxyuridine” here?
**A.** Its EC50 is 6.4 µM.

**Q.** Which CC50 (CEM) does the source give for “5-Carboranyl-2',3'-dideoxy-3'-thiauridine” here?
**A.** The CC50 was 37.9 µM.

**Q.** And the CC50 (Vero)?
**A.** Its CC50 is 34.2 µM.

**Q.** And the CC50 (PBM)?
**A.** Its CC50 is over 100 µM.

**Q.** And the EC50 (HIV-1 (strain LAV))?
**A.** Its EC50 is 12.1 µM.

**Q.** With `Nc1ccn([C@H]2CS[C@@H](CO)O2)c(=O)n1` (racemic) [BCH-189, 2', 3'-dideoxy-3'-thiacytidine] as the compound, how does the “viability as anti-HIV agent” value [1] read?
**A.** Its value is “demonstrated”.

**Q.** What about the “viability as anti-HBV agent” value (Hepatitis B virus (HBV)) of the same compound?
**A.** Its value is “demonstrated”.

**Q.** Which “uptake into malignant cells relative to normal cells” value (malignant cells) does the source give for `Cc1cc(OP(=O)(O)O)c2cc(I)ccc2c1OP(=O)(O)O` [6-I-MNDP, 6-iodo-2-methyl-1,4-naphthoquinol bis(diammonium phosphate)] here?
**A.** The value was 15-20 fold.

**Q.** And the “uptake in tumor tissues” value [2]?
**A.** Its value is “high uptake”.

**Q.** And the “uptake into critical radiosensitive tissues, such as bone-marrow, colon, and lung” value [2]?
**A.** The value was “low uptake”.

**Q.** What about the “metabolic stability of the halogen-carbon bond” value [3] of the same compound?
**A.** Its value is “metabolically stable”.

**Q.** For `O=c1[nH]c(=O)n([C@H]2C[C@H](O)[C@@H](CO)O2)cc1B(O)O` [DBDU, 5-dihydroxyboryl-2'-deoxyuridine], which “destruction of hamster V-79 cells” value (hamster V-79 cells) is on record?
**A.** Its value is “destroy hamster V-79 cells”.

**Q.** For `Nc1nc(=O)n([C@H]2CS[C@@H](CO)O2)cc1F` [FTC, 2', 3'-dideoxy-5-fluoro-3'-thiacytidine], which “viability as anti-HIV agent” value [1] is on record?
**A.** The value was “demonstrated”.

**Q.** What about the “viability as anti-HBV agent” value (Hepatitis B virus (HBV)) of the same compound?
**A.** The value was “demonstrated”.
